# Test results: patent US10087187B2, “Imidazopyridazine derivatives as PI3KB inhibitors” (Janssen Pharmaceutica NV, priority 2014, dated 2018)
# Read-outs that look alike come from different tables or passages of the source.
# Assays:
# PIK3Cγ_h = PIK3Cγ_h (Homo sapiens (Human), UniProt P48736); experiment: KINOMEscan enzyme binding assay, PIK3Cγ; details: DiscoveRx
# Method: (§1) Enzyme Binding Assays (KINOMEscan®) Kinase enzyme binding affinities of compounds disclosed herein were determined using the KINOMEscan technology performed by DiscoveRx Corporation, San Diego, Calif., USA (www.kinomescan.com).
# PIK3Cδ_h = PIK3Cδ_h (Homo sapiens (Human), UniProt O00329); experiment: KINOMEscan enzyme binding assay, PIK3Cδ; details: DiscoveRx
# Sequence of PIK3Cδ_h (O00329 whole entry): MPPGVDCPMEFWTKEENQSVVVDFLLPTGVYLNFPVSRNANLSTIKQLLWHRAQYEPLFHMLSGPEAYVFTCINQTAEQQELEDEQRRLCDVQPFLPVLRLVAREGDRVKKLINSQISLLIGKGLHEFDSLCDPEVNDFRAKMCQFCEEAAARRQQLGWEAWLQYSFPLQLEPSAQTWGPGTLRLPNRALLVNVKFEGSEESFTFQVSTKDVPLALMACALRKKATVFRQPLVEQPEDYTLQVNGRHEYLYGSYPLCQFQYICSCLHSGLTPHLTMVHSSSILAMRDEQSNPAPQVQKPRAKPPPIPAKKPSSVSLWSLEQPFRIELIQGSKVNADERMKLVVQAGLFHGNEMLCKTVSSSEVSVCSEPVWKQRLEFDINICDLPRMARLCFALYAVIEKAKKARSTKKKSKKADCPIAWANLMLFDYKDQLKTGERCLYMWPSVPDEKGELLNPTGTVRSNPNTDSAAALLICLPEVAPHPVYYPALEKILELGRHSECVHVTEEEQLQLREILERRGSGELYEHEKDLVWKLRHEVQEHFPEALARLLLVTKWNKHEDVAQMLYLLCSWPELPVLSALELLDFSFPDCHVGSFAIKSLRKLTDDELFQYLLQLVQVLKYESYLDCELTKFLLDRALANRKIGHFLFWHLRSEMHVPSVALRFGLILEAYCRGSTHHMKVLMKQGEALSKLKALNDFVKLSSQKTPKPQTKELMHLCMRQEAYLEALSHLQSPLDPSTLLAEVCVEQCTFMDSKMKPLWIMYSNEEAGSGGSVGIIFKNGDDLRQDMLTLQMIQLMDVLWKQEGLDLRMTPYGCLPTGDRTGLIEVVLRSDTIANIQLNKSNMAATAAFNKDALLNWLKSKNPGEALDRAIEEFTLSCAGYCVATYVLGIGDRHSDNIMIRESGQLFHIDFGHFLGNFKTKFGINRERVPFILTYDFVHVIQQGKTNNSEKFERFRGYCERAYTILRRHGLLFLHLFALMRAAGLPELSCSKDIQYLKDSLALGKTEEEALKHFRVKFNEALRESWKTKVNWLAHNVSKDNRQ
# Method: as §1, with “(www.kinomescan.com). Table A reports the obtained Kd values (nM), with the Kd being the inhibitor binding constant: […]” for “(www.kinomescan.com).”
# PIK3Cα_h = PIK3Cα_h (Homo sapiens (Human), UniProt P42336); experiment: KINOMEscan enzyme binding assay, PIK3Cα; details: DiscoveRx
# Sequence of PIK3Cα_h (P42336 whole entry): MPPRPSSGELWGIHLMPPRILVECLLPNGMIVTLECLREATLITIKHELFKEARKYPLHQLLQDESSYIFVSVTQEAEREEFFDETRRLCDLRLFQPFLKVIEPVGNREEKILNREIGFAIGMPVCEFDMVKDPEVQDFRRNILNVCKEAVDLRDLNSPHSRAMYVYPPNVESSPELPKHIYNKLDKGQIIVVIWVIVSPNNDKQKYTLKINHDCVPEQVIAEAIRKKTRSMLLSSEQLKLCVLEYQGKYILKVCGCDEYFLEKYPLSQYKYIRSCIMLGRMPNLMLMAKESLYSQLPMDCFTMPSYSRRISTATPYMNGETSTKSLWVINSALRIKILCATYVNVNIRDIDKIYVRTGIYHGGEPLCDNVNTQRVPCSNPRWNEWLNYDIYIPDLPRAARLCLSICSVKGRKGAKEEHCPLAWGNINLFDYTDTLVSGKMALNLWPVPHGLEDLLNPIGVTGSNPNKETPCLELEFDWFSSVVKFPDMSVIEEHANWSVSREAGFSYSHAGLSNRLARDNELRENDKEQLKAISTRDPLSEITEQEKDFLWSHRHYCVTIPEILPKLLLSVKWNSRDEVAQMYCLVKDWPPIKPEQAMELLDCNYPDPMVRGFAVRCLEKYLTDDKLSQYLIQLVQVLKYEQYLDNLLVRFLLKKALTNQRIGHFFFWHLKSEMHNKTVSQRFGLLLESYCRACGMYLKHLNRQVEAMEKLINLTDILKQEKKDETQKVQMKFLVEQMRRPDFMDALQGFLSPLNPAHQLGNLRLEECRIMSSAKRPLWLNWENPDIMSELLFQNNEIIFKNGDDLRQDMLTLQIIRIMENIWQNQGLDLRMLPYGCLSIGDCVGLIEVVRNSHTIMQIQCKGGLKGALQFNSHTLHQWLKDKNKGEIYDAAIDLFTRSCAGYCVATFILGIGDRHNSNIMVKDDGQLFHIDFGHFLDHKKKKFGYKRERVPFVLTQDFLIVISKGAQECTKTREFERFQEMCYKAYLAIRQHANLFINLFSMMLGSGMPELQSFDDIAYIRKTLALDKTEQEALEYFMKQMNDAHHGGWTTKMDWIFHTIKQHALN
# Method: as §1
# [1] = tested on: Akt phosphorylated at Ser473 in PC-3 cells; experiment: Cellular assay: phosphorylation of Akt (Ser473) in PC-3 cells, MSD ELISA; assay type: cell-based; details: 60 min incubation with compound, read-out: IC50 pAkt_S473
# Outline: (§2)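 PC-3 cells cultured 24 h in DMEM/10% FCS were exposed to compound for 60 min at 37° C, with 0.3% DMSO. Lysates were analysed by MSD electrochemiluminescent sandwich ELISA using phospho-Ser473 or phospho-Thr308 capture and anti-total Akt detection antibodies. IC50 was derived by nonlinear sigmoidal fitting of % inhibition over five concentrations.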
# [2] = tested on: Akt phosphorylated at Thr308 in PC-3 cells; experiment: Cellular assay: phosphorylation of Akt (Thr308) in PC-3 cells, MSD ELISA; assay type: cell-based; details: 60 min incubation with compound, read-out: IC50 pAkt_Thr308
# Outline: as §2
# PIK3Cβ_h = PIK3Cβ_h (Homo sapiens (Human), UniProt P42338); experiment: KINOMEscan enzyme binding assay, PIK3Cβ; details: DiscoveRx
# Sequence of PIK3Cβ_h (P42338 whole entry): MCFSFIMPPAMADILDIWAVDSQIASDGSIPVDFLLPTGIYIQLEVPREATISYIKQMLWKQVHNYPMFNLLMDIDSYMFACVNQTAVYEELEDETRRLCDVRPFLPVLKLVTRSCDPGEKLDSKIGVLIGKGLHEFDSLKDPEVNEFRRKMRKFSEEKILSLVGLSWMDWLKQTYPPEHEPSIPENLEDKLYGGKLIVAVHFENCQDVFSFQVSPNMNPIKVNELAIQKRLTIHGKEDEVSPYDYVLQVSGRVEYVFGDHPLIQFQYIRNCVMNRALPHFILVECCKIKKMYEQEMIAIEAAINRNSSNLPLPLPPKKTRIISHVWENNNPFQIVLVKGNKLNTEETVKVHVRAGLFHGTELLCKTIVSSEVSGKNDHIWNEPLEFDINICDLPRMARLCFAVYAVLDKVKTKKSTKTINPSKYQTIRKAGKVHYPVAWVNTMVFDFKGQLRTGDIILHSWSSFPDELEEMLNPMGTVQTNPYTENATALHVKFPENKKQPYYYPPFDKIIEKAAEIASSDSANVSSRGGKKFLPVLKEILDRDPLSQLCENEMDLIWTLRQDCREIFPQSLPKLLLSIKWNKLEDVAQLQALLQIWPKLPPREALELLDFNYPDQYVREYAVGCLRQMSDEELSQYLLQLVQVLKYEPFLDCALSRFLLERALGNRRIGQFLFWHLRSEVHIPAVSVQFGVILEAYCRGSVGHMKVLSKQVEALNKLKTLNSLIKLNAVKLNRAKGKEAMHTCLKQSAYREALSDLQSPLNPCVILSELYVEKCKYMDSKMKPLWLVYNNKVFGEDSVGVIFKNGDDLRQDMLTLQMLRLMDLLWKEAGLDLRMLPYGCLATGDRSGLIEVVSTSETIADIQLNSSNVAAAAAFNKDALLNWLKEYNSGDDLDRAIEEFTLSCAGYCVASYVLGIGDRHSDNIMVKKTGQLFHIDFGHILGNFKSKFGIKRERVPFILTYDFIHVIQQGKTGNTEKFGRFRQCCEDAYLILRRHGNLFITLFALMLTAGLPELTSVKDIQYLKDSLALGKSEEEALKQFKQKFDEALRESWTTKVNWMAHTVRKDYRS
# Method: as §1, with “(www.kinomescan.com). Table A reports the obtained Kd values (nM), with the Kd being the inhibitor binding constant: […]” for “(www.kinomescan.com).”
# MTOR_h = MTOR_h (Homo sapiens (Human), UniProt P42345); experiment: KINOMEscan enzyme binding assay, MTOR; details: DiscoveRx
# Method: as §1
# Sequence of PIK3Cγ_h (P48736 whole entry): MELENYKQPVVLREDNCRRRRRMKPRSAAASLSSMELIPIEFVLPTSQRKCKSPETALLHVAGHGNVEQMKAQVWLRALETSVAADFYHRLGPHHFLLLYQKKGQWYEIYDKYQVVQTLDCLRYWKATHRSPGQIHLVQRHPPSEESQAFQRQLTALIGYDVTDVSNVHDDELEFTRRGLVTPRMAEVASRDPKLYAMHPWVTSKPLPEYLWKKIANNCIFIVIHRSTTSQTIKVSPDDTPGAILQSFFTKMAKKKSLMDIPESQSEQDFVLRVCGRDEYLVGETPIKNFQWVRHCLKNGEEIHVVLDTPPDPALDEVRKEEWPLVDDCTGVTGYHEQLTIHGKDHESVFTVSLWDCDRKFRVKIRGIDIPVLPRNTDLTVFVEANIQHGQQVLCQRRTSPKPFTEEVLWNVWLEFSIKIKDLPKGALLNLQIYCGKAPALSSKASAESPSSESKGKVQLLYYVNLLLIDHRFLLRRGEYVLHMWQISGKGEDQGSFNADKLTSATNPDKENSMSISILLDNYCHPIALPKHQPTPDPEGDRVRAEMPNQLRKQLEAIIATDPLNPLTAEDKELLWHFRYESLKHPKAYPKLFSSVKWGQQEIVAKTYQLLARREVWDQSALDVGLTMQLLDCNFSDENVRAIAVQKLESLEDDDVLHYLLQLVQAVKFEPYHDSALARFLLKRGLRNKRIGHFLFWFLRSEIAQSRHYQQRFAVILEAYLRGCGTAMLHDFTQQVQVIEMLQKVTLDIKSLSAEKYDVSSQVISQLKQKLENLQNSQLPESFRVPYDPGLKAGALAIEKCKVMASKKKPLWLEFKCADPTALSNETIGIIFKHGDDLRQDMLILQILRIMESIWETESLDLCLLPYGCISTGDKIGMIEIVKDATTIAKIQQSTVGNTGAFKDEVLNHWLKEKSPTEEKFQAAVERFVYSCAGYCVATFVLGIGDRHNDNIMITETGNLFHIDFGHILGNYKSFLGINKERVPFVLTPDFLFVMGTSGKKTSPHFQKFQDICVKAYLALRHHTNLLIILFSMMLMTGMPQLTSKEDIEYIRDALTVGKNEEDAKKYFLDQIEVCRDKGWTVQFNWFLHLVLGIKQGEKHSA
Structure (SMILES),Kd (PIK3Cγ_h) [nM],Kd (PIK3Cδ_h) [nM],Kd (PIK3Cα_h) [nM],"IC50 ([1]; Homo sapiens, PC-3, 1 h) [nM]","IC50 ([2]; Homo sapiens, PC-3, 1 h) [nM]",Kd (PIK3Cβ_h) [nM],Kd (MTOR_h) [nM],IC50 [1] [nM],IC50 [2] [nM]
Cc1c(Cl)cccc1Cc1c(CO)nc2c(-c3c[nH]cn3)cc(N3CCOCC3)nn12 [Compound 67],324,17,195,23,74,0.5,186,,
Cc1nc2c(N)cc(N3CCOCC3)nn2c1Nc1ccccc1CN1CCOCC1 [Compound 69],24500,56,5370,186,151,15,1510,,
Cc1nc2c(N)cc(N3CCOCC3)nn2c1Nc1cccc(F)c1CNC(C)CO (stereo not drawn) [Compound 71],> 30200,75,17000,246,107,6,> 30200,,
Cc1nc2c(N)cc(N3CCOCC3)nn2c1Nc1cccc(C(F)(F)F)c1C1CCN(CCO)CC1 [Compound 73],24000,28,3240,89,~72,0.3,> 30200,,
Cc1c(Cc2c(COC(=O)C(C)N)nc3c(N)cc(N4CCOCC4)nn23)cccc1C(F)(F)F (stereo not drawn) [Compound 79],17400,120,8710,,,0.8,8910,27,45
Cc1c(Cc2c(COC(=O)C(N)Cc3ccccc3)nc3c(N)cc(N4CCOCC4)nn23)cccc1C(F)(F)F (stereo not drawn) [Compound 80],> 30200,6030,> 30200,209,~195,44,> 30200,,
CCC(C)C(N)C(=O)OCc1nc2c(N)cc(N3CCOCC3)nn2c1Cc1cccc(C(F)(F)F)c1C (stereo not drawn) [Compound 81],> 30200,724,26900,> 513,282,5,> 30200,,
Cc1c(Cc2c(COC(=O)C(C)N)nc3c(N)cc(N4CCOCC4)nn23)cccc1C(F)(F)F (stereo not drawn) [Compound 84],12600,48,12000,,,0.5,7940,141,98
Cc1c(Cc2c(CN)nc3c(N)cc(N4CCOCC4)nn23)cccc1C(F)(F)F [Compound 85],7480,75,> 23000,115,86,0.7,2680,,
Cc1nc2c(C(=O)O)cc(N3CCOCC3)nn2c1Nc1ccccc1N1CCOCC1 [Compound 86],13200,117,1780,> 513,> 513,10,19500,,
Cc1nc2c(-c3ccn[nH]3)cc(N3CCOCC3)nn2c1Nc1ccccc1N1CCOCC1 [Compound 89],851,44,631,115,83,22,85,,
Cc1c(F)cccc1Cc1c(CO)nc2c(N)cc(N3CCOCC3)nn12 [Compound 93],3890,166,> 30200,174,120,2.7,1900,,
Cc1c(F)cccc1Cc1c(CNCCO)nc2c(N)cc(N3CCOCC3)nn12 [Compound 97],3720,200,11200,79,40,1.6,912,,
CCc1c(F)cccc1Cc1c(CO)nc2c(N)cc(N3CCOCC3)nn12 [Compound 99],3310,832,10500,257,200,8.3,1620,,
Nc1cc(N2CCOCC2)nn2c(Cc3cccc(C(F)(F)F)c3C3CCNCC3)c(CO)nc12 [Compound 104],15100,138,9330,78,29,0.7,> 30200,,
Cc1nc2c(N)cc(N3CCOCC3)nn2c1Cc1cccc(F)c1C1CCNCC1 [Compound 106],5010,372,2750,174,129,0.5,> 30200,,
Cc1nc2c(N)cc(N3CCOCC3)nn2c1Cc1cccc(F)c1C1CCN(CCO)CC1 [Compound 107],8710,355,11700,158,115,12,11500,,
Cc1nc2c(N)cc(N3CCOCC3)nn2c1Cc1cccc2c1CNCC2 [Compound 109],2900,98,12800,136,82,9,22200,,
Cc1nc2c(N)cc(N3CCOCC3)nn2c1Cc1cccc2c1CN(C(C)C)CC2 [Compound 110],> 30200,2380,> 30200,324,222,513,> 30200,,

# Other lines, results leading:
Kd (PIK3Cγ_h) [nM],Kd (PIK3Cδ_h) [nM],Kd (PIK3Cα_h) [nM],"IC50 ([1]; Homo sapiens, PC-3, 1 h) [nM]","IC50 ([2]; Homo sapiens, PC-3, 1 h) [nM]",Kd (PIK3Cβ_h) [nM],Kd (MTOR_h) [nM],IC50 [1] [nM],IC50 [2] [nM],Structure (SMILES)
> 30200,34,20900,166,112,8,17000,,,Cc1nc2c(N)cc(N3CCOCC3)nn2c1Nc1cccc2c1CCNC2 [Compound 64]
> 30200,263,32400,380,~123,1.3,25100,,,Cc1c(Cc2c(COC(=O)C(N)C(C)C)nc3c(N)cc(N4CCOCC4)nn23)cccc1C(F)(F)F (stereo not drawn) [Compound 82]
3630,219,1200,257,~224,43,5890,,,Cc1nc2c(C(N)=O)cc(N3CCOCC3)nn2c1Nc1ccccc1N1CCOCC1 [Compound 87]
8130,148,8910,> 513,> 513,1.1,776,,,Cc1c(Cc2c(C(O)CN)nc3c(N)cc(N4CCOCC4)nn23)cccc1C(F)(F)F (stereo not drawn) [Compound 91]
10500,1410,16600,> 513,417,18,5750,,,Cc1nc2c(N)cc(N3CCOCC3)nn2c1Cc1cccc(F)c1CO [Compound 94]
> 30200,1510,> 30200,> 513,> 513,141,> 30200,,,CC(CO)NCc1c(F)cccc1Cc1c(CO)nc2c(N)cc(N3CCOCC3)nn12 (stereo not drawn) [Compound 102]
31600,1000,> 30200,> 423,> 382,74,24500,,,Cc1nc2c(N)cc(N3CCOCC3)nn2c1Cc1cccc(F)c1CNC(C)CO (stereo not drawn) [Compound 103]
13600,376,21400,> 513,> 513,14,18700,,,Nc1cc(N2CCOCC2)nn2c(Cc3cccc(F)c3C3CCN(CCO)CC3)c(CO)nc12 [Compound 108]
